Data: ChEMBL document CHEMBL4665648, “Potent and selective inhibitors of receptor-interacting protein kinase 1 that lack an aromatic back pocket group” (Bioorg Med Chem Lett, 2019)

How the values were obtained:
[1] = species: Homo sapiens; assay: Inhibition of recombinant human His-tagged PKA (1 to 351 residues) expressed in Escherichia coli expression system using Ser/Thr 01 as substrate at 10 uM incubated for 60 mins by Z'-lyte assay relative to control
[2] = molecular target: Serine/threonine-protein kinase Sgk2 (Homo sapiens) (UniProt Q9HBY8); assay: Inhibition of recombinant human GST-tagged full length SGK2 (54 to 427 residues) expressed in baculovirus expression system using Ser/Thr 06 as substrate at 10 uM incubated for 60 mins by Z'-Lyte assay relative to control
Serine/threonine-protein kinase Sgk2 (Homo sapiens), sequence (Q9HBY8 whole entry, the tested form may be a part): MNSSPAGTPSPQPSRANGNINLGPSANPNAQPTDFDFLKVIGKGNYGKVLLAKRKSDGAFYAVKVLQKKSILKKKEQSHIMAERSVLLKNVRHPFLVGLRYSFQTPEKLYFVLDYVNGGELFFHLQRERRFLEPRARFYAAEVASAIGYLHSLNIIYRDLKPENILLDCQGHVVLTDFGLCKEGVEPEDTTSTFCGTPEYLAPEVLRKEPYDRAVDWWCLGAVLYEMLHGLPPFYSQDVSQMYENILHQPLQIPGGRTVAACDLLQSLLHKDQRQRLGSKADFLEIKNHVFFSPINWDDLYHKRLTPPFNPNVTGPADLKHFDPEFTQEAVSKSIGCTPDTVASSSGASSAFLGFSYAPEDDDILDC

[3] = molecular target: Insulin receptor (Homo sapiens) (UniProt P06213); assay: Inhibition of recombinant human GST-tagged InsR (1011 to 1382 residues) expressed in baculovirus expression system using Tyr 01 as substrate at 10 uM incubated for 60 mins by Z'-lyte assay relative to control
[4] = molecular target: Interleukin-1 receptor-associated kinase 4 (Homo sapiens) (UniProt Q9NWZ3); assay: Inhibition of recombinant human His-tagged full length IRAK4 expressed in baculovirus expression system using Ser/Thr 07 as substrate at 10 uM incubated for 60 mins by Z'-Lyte assay relative to control
[5] = Clearance in Sprague-Dawley rat at 0.5 mg/kg, iv or 2 mg/kg, po; type: ADME, organism-based; settings: in vivo
[6] = molecular target: Inhibitor of nuclear factor kappa-B kinase subunit epsilon (Homo sapiens) (UniProt Q14164); assay: Inhibition of recombinant human GST-tagged full length IKKepsilon expressed in baculovirus expression system using Ser/Thr 11 as substrate at 10 uM incubated for 60 mins by Z'-lyte assay relative to control
[7] = molecular target: Serine/threonine-protein kinase 25 (Homo sapiens) (UniProt O00506); assay: Inhibition of recombinant human GST-tagged full length YSK1 expressed in baculovirus expression system using Ser/Thr 07 as substrate at 10 uM incubated for 60 mins by Z'-Lyte assay relative to control
Serine/threonine-protein kinase 25 (Homo sapiens), sequence (O00506 whole entry, looked up): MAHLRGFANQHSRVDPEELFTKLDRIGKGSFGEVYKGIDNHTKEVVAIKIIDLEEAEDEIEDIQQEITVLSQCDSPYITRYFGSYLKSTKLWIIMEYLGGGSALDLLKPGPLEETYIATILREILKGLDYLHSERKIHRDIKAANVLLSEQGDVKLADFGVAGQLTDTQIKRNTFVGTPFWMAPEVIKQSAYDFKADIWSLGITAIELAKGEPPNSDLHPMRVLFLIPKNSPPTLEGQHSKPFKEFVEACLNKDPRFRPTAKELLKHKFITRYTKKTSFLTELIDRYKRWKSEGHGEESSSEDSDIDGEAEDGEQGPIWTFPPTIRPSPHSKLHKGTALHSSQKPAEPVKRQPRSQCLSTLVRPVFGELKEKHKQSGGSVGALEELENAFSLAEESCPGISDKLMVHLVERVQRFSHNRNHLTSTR

[8] = molecular target: Calcium/calmodulin-dependent protein kinase type IV (Homo sapiens) (UniProt Q16566); assay: Inhibition of recombinant human GST-tagged full length CAMK4 expressed in Escherichia coli expression system using Ser/Thr 13 as substrate at 10 uM incubated for 60 mins by Z'-Lyte assay relative to control
[9] = molecular target: Ephrin type-A receptor 3 (Homo sapiens) (UniProt P29320); assay: Inhibition of tracer 236 binding to recombinant human His-tagged EPHA3 (569 to 976 residues) expressed in baculovirus expression system at 10 uM incubated for 60 mins by Lanthascreen assay relative to control
[10] = molecular target: Serine/threonine-protein kinase NLK (Homo sapiens) (UniProt Q9UBE8); assay: Inhibition of tracer 178 binding to recombinant human GST-tagged full length NLK expressed in baculovirus expression system at 10 uM incubated for 60 mins by Lanthascreen assay relative to control
Serine/threonine-protein kinase NLK (Homo sapiens), sequence (Q9UBE8 whole entry, canonical isoform): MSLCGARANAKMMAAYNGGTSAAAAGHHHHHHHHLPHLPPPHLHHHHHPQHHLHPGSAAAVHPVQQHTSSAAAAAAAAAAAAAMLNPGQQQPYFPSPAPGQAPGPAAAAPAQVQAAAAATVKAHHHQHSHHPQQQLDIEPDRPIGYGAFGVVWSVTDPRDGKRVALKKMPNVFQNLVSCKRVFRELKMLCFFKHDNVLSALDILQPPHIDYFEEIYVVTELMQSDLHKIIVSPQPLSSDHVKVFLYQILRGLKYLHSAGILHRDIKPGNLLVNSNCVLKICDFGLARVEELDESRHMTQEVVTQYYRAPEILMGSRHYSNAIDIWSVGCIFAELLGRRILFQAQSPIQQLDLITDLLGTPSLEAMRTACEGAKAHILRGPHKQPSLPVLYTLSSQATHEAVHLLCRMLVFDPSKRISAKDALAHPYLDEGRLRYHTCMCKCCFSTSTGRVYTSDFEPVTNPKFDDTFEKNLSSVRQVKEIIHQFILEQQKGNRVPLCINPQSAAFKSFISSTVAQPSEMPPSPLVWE

[11] = molecular target: Casein kinase I isoform alpha (Homo sapiens) (UniProt P48729); assay: Inhibition of recombinant human GST-tagged full length CK1alpha1 expressed in baculovirus expression system using Ser/Thr 11 as substrate at 10 uM incubated for 60 mins by Z'-Lyte assay relative to control
[12] = molecular target: Fibroblast growth factor receptor 4 (Homo sapiens) (UniProt P22455); assay: Inhibition of recombinant human His-tagged FGFR4 ([…] residues) expressed in baculovirus expression system using Tyr 04 as substrate at 10 uM incubated for 60 mins by Z'-Lyte assay relative to control
[13] = molecular target: T1, Receptor-interacting serine/threonine-protein kinase 1 (Homo sapiens, UniProt Q13546); assay: Inhibition of recombinant human His/GST-tagged RIPK1 (2 to 257 residues) expressed in insect expression system incubated for 2 hrs by fluorescence polarization assay; settings: read-out: Ki(app)
T1 sequence (Q13546 whole entry): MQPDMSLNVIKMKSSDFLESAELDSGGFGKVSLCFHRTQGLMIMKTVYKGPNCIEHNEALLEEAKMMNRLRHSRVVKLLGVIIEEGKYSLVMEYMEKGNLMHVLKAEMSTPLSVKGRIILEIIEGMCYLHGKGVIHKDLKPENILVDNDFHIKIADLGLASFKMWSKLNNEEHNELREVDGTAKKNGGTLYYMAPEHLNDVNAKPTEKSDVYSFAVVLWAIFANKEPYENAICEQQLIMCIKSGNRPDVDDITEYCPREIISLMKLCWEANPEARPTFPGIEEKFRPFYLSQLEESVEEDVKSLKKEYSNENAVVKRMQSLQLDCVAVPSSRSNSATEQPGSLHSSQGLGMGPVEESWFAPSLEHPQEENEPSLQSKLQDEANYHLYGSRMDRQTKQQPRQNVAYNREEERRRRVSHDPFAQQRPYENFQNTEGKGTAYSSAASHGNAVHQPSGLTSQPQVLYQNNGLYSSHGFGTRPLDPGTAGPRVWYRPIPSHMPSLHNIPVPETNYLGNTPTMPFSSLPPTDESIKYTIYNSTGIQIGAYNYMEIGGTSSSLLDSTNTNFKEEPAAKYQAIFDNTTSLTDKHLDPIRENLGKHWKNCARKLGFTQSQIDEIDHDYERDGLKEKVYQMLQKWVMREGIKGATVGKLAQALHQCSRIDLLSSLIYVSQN

[14] = molecular target: Homeodomain-interacting protein kinase 4 (Homo sapiens) (UniProt Q8NE63); assay: Inhibition of recombinant human N-terminal GST-tagged HIPK4 expressed in baculovirus expression system using Ser/Thr 18 as substrate at 10 uM incubated for 60 mins by Z'-Lyte assay relative to control
[15] = molecular target: Serine/threonine-protein kinase PLK3 (Homo sapiens) (UniProt Q9H4B4); assay: Inhibition of recombinant human GST-tagged PLK3 (58 to 340 residues) expressed in baculovirus expression system using Ser/Thr 16 as substrate at 10 uM incubated for 60 mins by Z'-lyte assay relative to control
Serine/threonine-protein kinase PLK3 (Homo sapiens), sequence (Q9H4B4 whole entry, looked up, the tested form may be a part): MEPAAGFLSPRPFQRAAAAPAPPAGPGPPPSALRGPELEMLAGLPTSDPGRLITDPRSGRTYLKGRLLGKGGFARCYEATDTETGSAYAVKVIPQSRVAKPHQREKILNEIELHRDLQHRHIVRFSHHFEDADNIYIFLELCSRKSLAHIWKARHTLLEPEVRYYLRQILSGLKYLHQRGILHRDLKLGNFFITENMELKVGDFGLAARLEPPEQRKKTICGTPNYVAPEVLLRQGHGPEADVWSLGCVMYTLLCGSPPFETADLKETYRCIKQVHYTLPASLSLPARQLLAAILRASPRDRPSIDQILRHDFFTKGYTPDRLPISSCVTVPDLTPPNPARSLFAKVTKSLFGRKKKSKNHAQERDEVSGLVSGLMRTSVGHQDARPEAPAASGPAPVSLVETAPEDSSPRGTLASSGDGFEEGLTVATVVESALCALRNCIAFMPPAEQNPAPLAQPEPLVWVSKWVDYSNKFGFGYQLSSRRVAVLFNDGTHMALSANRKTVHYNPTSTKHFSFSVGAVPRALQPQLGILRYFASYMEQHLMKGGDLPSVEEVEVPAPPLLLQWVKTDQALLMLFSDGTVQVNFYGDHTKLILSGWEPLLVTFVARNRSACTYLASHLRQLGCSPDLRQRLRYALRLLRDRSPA

[16] = molecular target: Homeodomain-interacting protein kinase 1 (Homo sapiens) (UniProt Q86Z02); assay: Inhibition of recombinant human N-terminal GST-tagged HIPK1 (158 to 555 residues) expressed in baculovirus expression system using Ser/Thr 09 as substrate at 10 uM incubated for 60 mins by Z'-Lyte assay relative to control
Homeodomain-interacting protein kinase 1 (Homo sapiens), sequence (Q86Z02 whole entry, looked up, the tested form may be a part): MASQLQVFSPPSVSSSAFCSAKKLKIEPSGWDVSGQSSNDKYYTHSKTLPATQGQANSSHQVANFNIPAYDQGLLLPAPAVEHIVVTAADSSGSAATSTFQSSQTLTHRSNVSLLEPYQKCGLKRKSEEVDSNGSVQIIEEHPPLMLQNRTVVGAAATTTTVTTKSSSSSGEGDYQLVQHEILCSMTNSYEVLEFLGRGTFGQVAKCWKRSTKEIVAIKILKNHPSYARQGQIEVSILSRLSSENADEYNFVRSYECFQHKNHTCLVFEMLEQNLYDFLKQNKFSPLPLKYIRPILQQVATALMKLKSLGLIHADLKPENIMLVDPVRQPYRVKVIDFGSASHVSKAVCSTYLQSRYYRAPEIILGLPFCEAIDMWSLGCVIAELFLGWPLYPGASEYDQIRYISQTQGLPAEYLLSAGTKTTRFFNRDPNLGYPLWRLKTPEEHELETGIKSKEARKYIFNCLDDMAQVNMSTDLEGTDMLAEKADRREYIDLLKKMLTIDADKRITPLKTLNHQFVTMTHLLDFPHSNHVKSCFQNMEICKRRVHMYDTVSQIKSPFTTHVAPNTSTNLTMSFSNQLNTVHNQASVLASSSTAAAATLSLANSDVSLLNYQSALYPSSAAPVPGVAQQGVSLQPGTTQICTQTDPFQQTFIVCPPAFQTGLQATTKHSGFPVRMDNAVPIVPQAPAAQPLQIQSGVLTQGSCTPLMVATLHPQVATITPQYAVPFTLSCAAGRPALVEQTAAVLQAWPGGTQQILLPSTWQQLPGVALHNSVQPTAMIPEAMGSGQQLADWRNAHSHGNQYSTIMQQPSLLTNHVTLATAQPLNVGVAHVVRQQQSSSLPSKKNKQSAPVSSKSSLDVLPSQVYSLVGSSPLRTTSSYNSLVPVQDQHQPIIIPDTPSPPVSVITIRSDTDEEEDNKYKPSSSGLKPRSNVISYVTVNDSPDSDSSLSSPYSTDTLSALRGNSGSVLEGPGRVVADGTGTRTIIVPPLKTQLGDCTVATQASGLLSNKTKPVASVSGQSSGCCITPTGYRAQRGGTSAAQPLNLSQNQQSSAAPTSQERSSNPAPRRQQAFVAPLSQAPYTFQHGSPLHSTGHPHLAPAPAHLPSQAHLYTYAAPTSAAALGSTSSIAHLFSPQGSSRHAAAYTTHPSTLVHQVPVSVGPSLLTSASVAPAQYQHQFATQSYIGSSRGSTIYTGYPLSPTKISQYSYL

[17] = molecular target: cGMP-dependent protein kinase 1 (Homo sapiens) (UniProt Q13976); assay: Inhibition of recombinant human GST-tagged full length […] expressed in baculovirus expression system using Ser/Thr 01 as substrate at 10 uM incubated for 60 mins by Z'-lyte assay relative to control
cGMP-dependent protein kinase 1 (Homo sapiens), sequence (Q13976 whole entry): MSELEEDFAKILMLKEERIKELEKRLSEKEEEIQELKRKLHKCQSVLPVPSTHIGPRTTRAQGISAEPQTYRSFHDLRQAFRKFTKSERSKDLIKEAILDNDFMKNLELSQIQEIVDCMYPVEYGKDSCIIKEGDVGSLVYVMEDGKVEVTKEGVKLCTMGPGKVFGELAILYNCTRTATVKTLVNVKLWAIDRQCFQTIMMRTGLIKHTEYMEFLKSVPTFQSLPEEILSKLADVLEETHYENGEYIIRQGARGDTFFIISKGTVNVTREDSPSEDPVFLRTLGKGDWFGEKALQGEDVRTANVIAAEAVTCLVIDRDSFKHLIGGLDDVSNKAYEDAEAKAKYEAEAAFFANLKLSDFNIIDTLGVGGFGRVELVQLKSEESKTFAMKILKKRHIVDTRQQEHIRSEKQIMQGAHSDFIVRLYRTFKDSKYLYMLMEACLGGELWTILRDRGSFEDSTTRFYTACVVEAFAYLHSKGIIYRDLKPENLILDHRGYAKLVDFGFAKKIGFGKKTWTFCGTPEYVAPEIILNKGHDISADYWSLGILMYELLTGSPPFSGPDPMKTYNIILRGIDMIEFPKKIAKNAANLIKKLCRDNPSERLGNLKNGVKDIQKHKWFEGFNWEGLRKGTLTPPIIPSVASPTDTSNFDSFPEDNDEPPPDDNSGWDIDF

[18] = molecular target: Serine/threonine-protein kinase PLK1 (Homo sapiens) (UniProt P53350); assay: Inhibition of recombinant human His-tagged full length PLK1 expressed in baculovirus expression system using Ser/Thr 16 as substrate at 10 uM incubated for 60 mins by Z'-lyte assay relative to control
Serine/threonine-protein kinase PLK1 (Homo sapiens), sequence (P53350 whole entry): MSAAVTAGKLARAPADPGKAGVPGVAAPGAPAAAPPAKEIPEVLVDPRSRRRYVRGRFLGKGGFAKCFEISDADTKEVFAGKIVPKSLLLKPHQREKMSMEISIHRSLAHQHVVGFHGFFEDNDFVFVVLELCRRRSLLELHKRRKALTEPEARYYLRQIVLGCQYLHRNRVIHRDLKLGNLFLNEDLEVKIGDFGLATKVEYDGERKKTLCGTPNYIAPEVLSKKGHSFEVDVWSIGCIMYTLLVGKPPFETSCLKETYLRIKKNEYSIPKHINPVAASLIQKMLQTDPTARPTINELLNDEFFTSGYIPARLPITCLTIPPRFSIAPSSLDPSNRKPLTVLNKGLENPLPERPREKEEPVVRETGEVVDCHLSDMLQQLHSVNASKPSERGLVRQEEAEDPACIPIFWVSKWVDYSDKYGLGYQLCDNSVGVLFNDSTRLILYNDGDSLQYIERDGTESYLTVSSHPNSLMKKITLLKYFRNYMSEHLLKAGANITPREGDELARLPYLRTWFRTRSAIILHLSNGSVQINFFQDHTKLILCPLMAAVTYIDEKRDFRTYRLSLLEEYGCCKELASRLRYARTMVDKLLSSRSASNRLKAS

[19] = molecular target: 5'-AMP-activated protein kinase catalytic subunit alpha-1 (Homo sapiens) (UniProt Q13131); assay: Inhibition of PRKAA1 (unknown origin) by selectscreen kinase assay; settings: dose 10.0 µM, time 60.0 min
5'-AMP-activated protein kinase catalytic subunit alpha-1 (Homo sapiens), sequence (Q13131 whole entry, looked up, the tested form may be a part): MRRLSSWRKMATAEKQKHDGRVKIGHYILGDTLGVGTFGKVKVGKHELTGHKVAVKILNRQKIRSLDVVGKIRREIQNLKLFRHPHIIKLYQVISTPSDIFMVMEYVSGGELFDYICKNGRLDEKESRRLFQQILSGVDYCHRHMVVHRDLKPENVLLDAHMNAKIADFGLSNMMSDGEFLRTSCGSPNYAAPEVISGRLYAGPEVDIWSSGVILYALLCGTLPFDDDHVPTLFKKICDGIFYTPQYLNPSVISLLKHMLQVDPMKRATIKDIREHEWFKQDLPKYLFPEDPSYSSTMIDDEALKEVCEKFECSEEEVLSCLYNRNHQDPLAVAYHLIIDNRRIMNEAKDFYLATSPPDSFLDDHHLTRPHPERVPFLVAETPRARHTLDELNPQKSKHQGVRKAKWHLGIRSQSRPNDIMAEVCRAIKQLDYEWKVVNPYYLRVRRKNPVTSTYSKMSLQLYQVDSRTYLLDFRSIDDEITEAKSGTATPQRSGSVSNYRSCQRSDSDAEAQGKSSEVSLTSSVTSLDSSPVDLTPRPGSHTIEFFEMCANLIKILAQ

[20] = molecular target: PAS domain-containing serine/threonine-protein kinase (Homo sapiens) (UniProt Q96RG2); assay: Inhibition of recombinant human GST-tagged PASK (879 to 1323 residues) expressed in baculovirus expression system using Ser/Thr 07 as substrate at 10 uM incubated for 60 mins by Z'-lyte assay relative to control

CN1C(=O)[C@@H](NC(=O)c2n[nH]c3ncc(C(F)(F)C(F)(F)F)cc23)COc2ccccc21
inhibition [1]: -1%
inhibition [2]: 4%
inhibition [3]: 6%
inhibition [4]: 6.5%
clearance [5]: 7.1 mL/min/kg
inhibition [6]: 1.5%
inhibition [7]: 7%
inhibition [8]: -2%
inhibition [9]: 5.5%
inhibition [10]: -3.5%
inhibition [11]: 1.5%
inhibition [12]: -7%
Ki [13]: 6 nM
inhibition [14]: 17.5%
inhibition [15]: 7%
inhibition [16]: 5%
inhibition [17]: 0.5%
inhibition [18]: 2.5%
inhibition [19]: 3%
inhibition [20]: 2%
